Several values for one entry are separate records, joined by “and”; a condition that tells them apart may be missing. Identical values can stand only once.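 1) Cells in 96-well plates. 2) Compound, 48 h, 5 concentrations. 3) Linear interpolation between surrounding doses. 4) Unreached endpoint = highest concentration. The concentration for 50% growth inhibition is given as GI50. TGI is the concentration that stops growth completely.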
Legend:
Test in all cases: DTP human tumour cell line panel, 48 h
HCT-116 colon = tested on: HCT-116 colon
MCF7 breast = tested on: MCF7 breast
786-0 renal = tested on: 786-0 renal
SK-OV-3 ovarian = tested on: SK-OV-3 ovarian
NCI-H226 lung = tested on: NCI-H226 lung
HCC-2998 colon = tested on: HCC-2998 colon
HL-60(TB) leukemia = tested on: HL-60(TB) leukemia
MOLT-4 leukemia = tested on: MOLT-4 leukemia
SK-MEL-5 melanoma = tested on: SK-MEL-5 melanoma
IGROV1 ovarian = tested on: IGROV1 ovarian

SMILES | GI50 (HCT-116 colon) | TGI (HCT-116 colon) | GI50 (MCF7 breast) | TGI (MCF7 breast) | GI50 (786-0 renal) | TGI (786-0 renal) | GI50 (SK-OV-3 ovarian) | TGI (SK-OV-3 ovarian) | GI50 (NCI-H226 lung) | TGI (NCI-H226 lung) | GI50 (HCC-2998 colon) | TGI (HCC-2998 colon) | GI50 (HL-60(TB) leukemia) | TGI (HL-60(TB) leukemia) | GI50 (MOLT-4 leukemia) | TGI (MOLT-4 leukemia) | GI50 (SK-MEL-5 melanoma) | TGI (SK-MEL-5 melanoma) | GI50 (IGROV1 ovarian) | TGI (IGROV1 ovarian)
O=c1[nH]nc2c3c(cccc13)NC(CN1Cc3ccccc3C1)=N2 | 6.77 µM | > 100 µM | 3.82 µM | > 100 µM | 6.62 µM | > 100 µM | 3.11 µM | > 100 µM | 30.3 µM | > 100 µM | 4.35 µM | > 100 µM | 9.13 µM | > 100 µM | 4.56 µM | > 100 µM | 8.42 µM | > 100 µM | 3.87 µM | > 100 µM
CC(=O)Oc1cccc2c1C(=O)C(Br)(Br)CCC2 | – | 9.66 µM | – | 5.71 µM | – | 11.4 µM | – | 24.9 µM | – | 20.1 µM | – | 31.1 µM | – | 6.51 µM | – | 13.8 µM | – | 14.4 µM | – | 30.6 µM
Cc1nn2c(/C=C3/C(=O)Nc4ccc(Cl)cc43)c(-c3ccccc3)nc2s1 | 1.9 µM | 4.61 µM | 3.85 µM | 25 µM | 2.37 µM | 5.8 µM | 2.25 µM | 5.03 µM | 1.51 µM | 4.6 µM | 9.59 µM | 37 µM | 28.8 µM | > 100 µM | 6.96 µM | 37.1 µM | 4.07 µM | 23.2 µM | 1.51 µM | 10.2 µM
COc1ccc(/C=C(\C#N)c2cc(OC)c3c(c2)OCO3)cc1 | < 0.0121 µM | 4.39 µM | < 0.0118 µM | 19.8 µM | < 0.0215 µM | 17.2 µM | < 0.0111 µM | 0.458 µM | 0.0249 µM | 2.56 µM | 0.0264 µM | 1.41 µM | 0.0128 µM | 54.7 µM | 0.0402 µM | > 100 µM | 0.0101 µM | 0.245 µM | 0.0212 µM | 32 µM
NC(=O)C1=C(c2ccccc2)c2ccccc2C1=O | – | 34.9 µM | – | 32.9 µM | – | 30.5 µM | – | 33.2 µM | – | 37.5 µM | – | 29.5 µM | – | 18.1 µM | – | 14.9 µM | – | 33.6 µM | – | 30.6 µM
Cc1ccc(NC2=C(Sc3ccc(Cl)cc3)C(=O)N(Cc3ccccc3)C2=O)cc1Cl | 3.6 µM | 15 µM | 4.37 µM | > 100 µM | 10.3 µM | 22.4 µM | 18.2 µM | 45.7 µM | 4.23 µM | 19.9 µM | 19.6 µM | > 100 µM | 11.9 µM | 27.6 µM | 10.5 µM | 26 µM | 5.84 µM | 20.3 µM | 3.98 µM | 15.3 µM
CN(C)CC#Cc1cccc(C(=O)c2cnn(-c3ccc(F)cc3)c2N)c1 | > 25 µM | > 25 µM | > 25 µM | > 25 µM | > 25 µM | > 25 µM | > 25 µM | > 25 µM | > 21.9 µM | > 25 µM | > 25 µM | > 25 µM | > 25 µM | > 25 µM | > 25 µM | > 25 µM | 16.1 µM | > 25 µM | > 21.1 µM | > 25 µM
CCOc1cc2ncc(C#N)c(Nc3ccc(F)c(Cl)c3)c2cc1NC(=O)/C=C/CN(C)C | 0.333 µM | 1.83 µM | 1.23 µM | 5.56 µM | 0.339 µM | 2 µM | 0.022 µM | 0.139 µM | 0.584 µM | > 5.01 µM | 1.13 µM | > 10 µM | 0.57 µM | > 5.51 µM | 0.716 µM | > 4.91 µM | 2.93 µM | > 10 µM | 0.0269 µM | 0.466 µM
CO/N=C1/NC(=O)/C(=C/c2ccc3ncccc3c2)S1 | 17.4 µM | > 25 µM | 4.45 µM | > 25 µM | 23.4 µM | > 25 µM | 7.78 µM | > 25 µM | 6.5 µM | > 25 µM | > 25 µM | > 25 µM | 13.8 µM | > 25 µM | 16.1 µM | > 25 µM | > 14.1 µM | > 25 µM | 4.78 µM | 15.9 µM
Cc1c(CN2CCC(Nc3ncnc4sc(CC(F)(F)F)cc34)CC2)ccc2c1cc(C#N)n2Cc1cn[nH]c1 | 1.12 µM and 1.99 µM | 2.4 µM | 1.59 µM and 2.01 µM | 3.75 µM and 8.6 µM | 4.92 µM and 4.44 µM | 21.9 µM | 10 µM and > 24.1 µM | > 47.4 µM | 7.58 µM and 4.31 µM | 40.2 µM and 36.9 µM | 1.86 µM and 2.8 µM | 4.38 µM and 10.9 µM | 2.74 µM and 2.83 µM | 8.87 µM | 1.91 µM and 1.98 µM | 9.55 µM | 0.967 µM and 0.958 µM | 2.61 µM and 3.02 µM | 5.23 µM and 23.8 µM | 26.1 µM and > 100 µM
Fc1ccc(-c2nnc3sc(-c4cccc(Cl)c4)nn23)cc1Cl | > 100 µM | > 100 µM | > 100 µM | > 100 µM | > 100 µM | > 100 µM | > 100 µM | > 100 µM | > 100 µM | > 100 µM | > 100 µM | > 100 µM | > 100 µM | > 100 µM | > 100 µM | > 100 µM | > 100 µM | > 100 µM | > 100 µM | > 100 µM
CN1CCN(Cc2ccc(NC(=O)c3[nH]ncc3Nc3ncnc4c3CCC4)cc2)CC1 | 0.454 µM | 11.4 µM | 0.372 µM | 11.1 µM | 2.24 µM | 11 µM | 0.185 µM | 17.5 µM | 0.755 µM | 13 µM | 3.02 µM | 11.6 µM | 0.728 µM | 3.29 µM | 0.447 µM | 3 µM | 0.874 µM | 13.3 µM | 1.45 µM | 14.6 µM
O=C(Nc1ccncc1)C(=O)c1cn(S(=O)(=O)c2ccccc2F)c2ccccc12 | 0.504 µM | > 37.8 µM | 0.547 µM | 27.5 µM | 4.95 µM | 40.9 µM | 12 µM | 36.6 µM | 6.93 µM | > 68.6 µM | 5.36 µM | > 100 µM | 0.576 µM | – | 3.45 µM | > 45.7 µM | 0.693 µM | 16.2 µM | 3.83 µM | > 100 µM

Reference: PubChem BioAssay (NCI)
